Assay results as given in patent US20240408085A1, “COMPOUND FOR DEGRADATION OF BCL-2 FAMILY PROTEINS AND MEDICAL APPLICATION THEREOF” (XIZANG HAISCO PHARMACEUTICAL CO., LTD., priority 2021, published 2024).

Assays:
BCL-xL proteins = target: T1, BCL-xL proteins (Homo sapiens, UniProt Q07817); assay: BCL-xL degradation activity in MOLT-4 cells (western blot, 16 h); assay type: cell-based
T1 construct: degradation effect on the BCL-xL proteins in MOLT-4 cells; host or cells: MOLT-4
Experimental: MOLT-4 cells are acute lymphoblastic leukemia cell lines in humans. The cells were purchased from ATCC. Culture conditions: RPMI-1640+10% FBS+1% penicillin-streptomycin solution. The cells were cultured in a 37° C., 5% CO2 incubator. The cells were plated in a 12-well plate, with 2×10^5 cells/well. After plating, compounds at different concentrations were added and cultured in a 37° C., 5% CO2 incubator for 16 h. After the completion of culture, the cells were harvested and RIPA lysis buffer (beyotime, Cat. P0013B) was added. The cells were lysed on ice for 15 minutes and centrifuged at 12000 rpm at 4° C. for 10 minutes. The supernatant protein samples were collected and the protein was quantified by using the BCA kit (Beyotime, Cat. P0009). Then the protein was diluted to 0.8 mg/mL. The expressions of BCL-xL (CST, Cat. 2764S), BCL-2 (CST, Cat. 15071S) and the internal reference β-actin (CST, Cat. 3700S) were detected using a fully automated western blot quantitative analyzer (Proteinsimple). The expression level of BCL-xL or BCL-2 relative to the internal reference was calculated by using Compass software, and the DC50 value was calculated by using GraphPad Prism 8.0 software according to formula (1), wherein the Proteinadministration denoted the relative expression level of BCL-xL or BCL-2 in administration groups at different doses, and the Proteinvehicle denoted the relative expression level of BCL-xL or BCL-2 in the vehicle control group.
Protein %=Proteinadministration/Proteinvehicle×100% formula (1)

MOLT-4 cells = assay: Cell proliferation activity in MOLT-4 cells (72 h, cell viability luminescence); assay type: cell-based, human; details: Homo sapiens, read-out: IC50 for the inhibition of MOLT-4 cell proliferation
Outline: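 Human acute lymphoblastic leukemia cells were seeded at 5×10^3 cells/well in RPMI-1640 with 10% FBS. They were treated with serially varied compound concentrations for 72 h at 37° C., 5% CO2. A luminescent viability reagent was used for read-out. IC50 was derived relative to vehicle control; maximum inhibition was the inhibition rate at the highest concentration.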

platelet (PLT) = assay: Effect on platelet (PLT) after single intravenous injection; assay type: in vivo, SD rats
Experimental: Experimental animal: 78 SD rats, with an equal number of males and females, male (♂): 290-380 g, female (♀): 220-290 g, 8-10 weeks old, purchased from Zhejiang Vital River Laboratory Animal Technology Co., Ltd.
Experimental protocol: a clear solution was formulated using a vehicle ([…]). The animals were dosed via tail vein a single time (administration volume: 20 mL/kg; bolus injection period: about 4 minutes; recovery period: 7 days).

T1 sequence (Q07817 whole entry): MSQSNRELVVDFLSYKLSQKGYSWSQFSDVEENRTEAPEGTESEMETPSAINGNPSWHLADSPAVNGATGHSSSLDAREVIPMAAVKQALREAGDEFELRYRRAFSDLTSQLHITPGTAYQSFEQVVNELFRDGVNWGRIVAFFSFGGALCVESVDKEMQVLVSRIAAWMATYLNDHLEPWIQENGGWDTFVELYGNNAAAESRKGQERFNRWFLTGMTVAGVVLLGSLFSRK

SMILES: Cc1ncsc1-c1ccc([C@H](C)NC(=O)[C@@H]2C[C@@H](O)CN2C(=O)[C@@H](NC(=O)CCCCCC(=O)N2C[C@H]3C[C@@H]2CN3CC[C@H](CSc2ccccc2)Nc2ccc(S(=O)(=O)NC(=O)c3ccc(N4CCN(CC5=C(c6ccc(Cl)cc6)CCC(C)(C)C5)CC4)cc3)cc2S(=O)(=O)C(F)(F)F)C(C)(C)C)cc1 [Compound 10, (2S,4R)-1-((S)-2-(7-((1R,4R)-5-((R)-3-((4-(N-(4-(4-((4′-chloro-4,4-dimethyl-3,4,5,6-tetrahydro-[1,1′-biphenyl]-2-yl)methyl)piperazin-1-yl)benzoyl)sulfamoyl)-2-((trifluoromethyl)sulfonyl)phenyl)amino)-4-(phenylthio)butyl)-2,5-diazabicyclo[2.2.1]heptan-2-yl)-7-oxoheptanamido)-3,3-dimethylbutanoyl)-4-hydroxy-N—((S)-1-(4-(4-methylthiazol-5-yl)phenyl)ethyl)pyrrolidine-2-carboxamide]
- DC50 (BCL-xL proteins): 3.7 nM
- IC50 (MOLT-4 cells): < 500 nM

SMILES: Cc1ncsc1-c1ccc([C@H](C)NC(=O)[C@@H]2C[C@@H](O)CN2C(=O)[C@@H](NC(=O)CCCCCC(=O)N2CCN(CC[C@H](CSc3ccccc3)Nc3ccc(S(=O)(=O)NC(=O)c4ccc(N5CCN(CC6=C(c7ccc(Cl)cc7)CCC7(CC7)C6)CC5)cc4)cc3S(=O)(=O)C(F)(F)F)CC2)C(C)(C)C)cc1 [Compound 11, (2S,4R)-1-((S)-2-(7-(4-((R)-3-((4-(N-(4-(4-((6-(4-chlorophenyl)spiro[2.5]oct-5-en-5-yl)methyl)piperazin-1-yl)benzoyl)sulfamoyl)-2-((trifluoromethyl)sulfonyl)phenyl)amino)-4-(phenylthio)butyl)piperazin-1-yl)-7-oxoheptanamido)-3,3-dimethylbutanoyl)-4-hydroxy-N—((S)-1-(4-(4-methylthiazol-5-yl)phenyl)ethyl)pyrrolidine-2-carboxamide]
- DC50 (BCL-xL proteins): 5.3 nM
- IC50 (MOLT-4 cells): < 500 nM

SMILES: Cc1ncsc1-c1ccc([C@H](C)NC(=O)[C@@H]2C[C@@H](O)CN2C(=O)[C@@H](NC(=O)CCCC(=O)N2C[C@H]3CN(CC[C@H](CSc4ccccc4)Nc4ccc(S(=O)(=O)NC(=O)c5ccc(N6CCN(CC7=C(c8ccc(Cl)cc8)CCC(C)(C)C7)CC6)cc5)cc4S(=O)(=O)C(F)(F)F)C[C@H]3C2)C(C)(C)C)cc1 [Compound 15, cis-(2S,4R)-1-((S)-2-(5-(5-((R)-3-((4-(N-(4-(4-((4′-chloro-4,4-dimethyl-3,4,5,6-tetrahydro-[1,1′-biphenyl]-2-yl)methyl)piperazin-1-yl)benzoyl)sulfamoyl)-2-((trifluoromethyl)sulfonyl)phenyl)amino)-4-(phenylthio)butyl)hexahydropyrrolo[3,4-c]pyrrol-2(1H)-yl)-5-oxopentanamido)-3,3-dimethylbutanoyl)-4-hydroxy-N—((S)-1-(4-(4-methylthiazol-5-yl)phenyl)ethyl)pyrrolidine-2-carboxamide]
- DC50 (BCL-xL proteins): 3.6 nM
- IC50 (MOLT-4 cells): < 500 nM

SMILES: Cc1ncsc1-c1ccc([C@H](C)NC(=O)[C@@H]2C[C@@H](O)CN2C(=O)[C@@H](NC(=O)CCCCCC(=O)N2C[C@H]3C[C@@H]2CN3CC[C@H](CSc2ccccc2)Nc2ccc(S(=O)(=O)NC(=O)c3ccc(N4CCN(CC5=C(c6ccc(Cl)cc6)CCC6(CC6)C5)CC4)cc3)cc2S(=O)(=O)C(F)(F)F)C(C)(C)C)cc1 [Compound 19, (2S,4R)-1-((S)-2-(7-((1R,4R)-5-((R)-3-((4-(N-(4-(4-((6-(4-chlorophenyl)spiro[2.5]oct-5-en-5-yl)methyl)piperazin-1-yl)benzoyl)sulfamoyl)-2-((trifluoromethyl)sulfonyl)phenyl)amino)-4-(phenylthio)butyl)-2,5-diazabicyclo[2.2.1]heptan-2-yl)-7-oxoheptanamido)-3,3-dimethylbutanoyl)-4-hydroxy-N—((S)-1-(4-(4-methylthiazol-5-yl)phenyl)ethyl)pyrrolidine-2-carboxamide]
- DC50 (BCL-xL proteins): 10.7 nM
- IC50 (MOLT-4 cells): < 500 nM

SMILES: Cc1ncsc1-c1ccc([C@H](C)NC(=O)[C@@H]2C[C@@H](O)CN2C(=O)[C@@H](NC(=O)CCCCCC(=O)N2CCN(CC[C@H](CSc3ccccc3)Nc3ccc(S(=O)(=O)NC(=O)c4ccc(N5CCN(CC6=C(c7ccc(Cl)cc7)CCC(C)(C)C6)CC5)cc4)cc3S(=O)(=O)C(F)(F)F)CC2)C(C)(C)C)cc1 [Control compound, DT2216, reference compound]
- DC50 (BCL-xL proteins): > 20 nM
- Effect on PLT (↓ decrease) (platelet (PLT); SD rats ♀, 6 mg/kg single i.v., 4 h): ↓24%
- Effect on PLT (↓ decrease) (platelet (PLT); SD rats ♀, 6 mg/kg single i.v., D2): ↓78%
- Effect on PLT (↓ decrease) (platelet (PLT); SD rats ♀, 20 mg/kg single i.v., 4 h): ↓89%
- Effect on PLT (↓ decrease) (platelet (PLT); SD rats ♀, 20 mg/kg single i.v., D2): ↓96%
- Effect on PLT (↓ decrease) (platelet (PLT); SD rats ♀, 60 mg/kg single i.v., D8): ↓87%
- Effect on PLT (↓ decrease) (platelet (PLT); SD rats ♂, 6 mg/kg single i.v., 4 h): ↓26%
- Effect on PLT (↓ decrease) (platelet (PLT); SD rats ♂, 6 mg/kg single i.v., D2): ↓69%
- Effect on PLT (↓ decrease) (platelet (PLT); SD rats ♂, 20 mg/kg single i.v., 4 h): ↓81%
- Effect on PLT (↓ decrease) (platelet (PLT); SD rats ♂, 20 mg/kg single i.v., D2): ↓91%
- Effect on PLT (↓ decrease) (platelet (PLT); SD rats ♂, 60 mg/kg single i.v., D8): ↓73%
